Test [1] is described as follows: Tested for its maximal percent change of force of constriction in uM. Type of test: functional.
Test [2] can be described thus: Tested for its maximal percent change of delaying functional refractory period in uM.
A short description of test [3]: Tested for its maximal percent change of heart rate in uM. In kind it is functional.
Test [4] in a line: Negative log of concentration (-logC)for delaying functional refractory period 10 ms in animal atrium. More on the design: species or system Cardiac atrium.
Test [5] can be described thus: Tested for its effective concentration for delaying functional refractory period 10 ms in animal atrium. More on the design: species or system Cardiac atrium.
Test [6] in a line: The compound was tested for its maximal percent change of delaying functional refractory period in uM; no effect.
A short description of test [7]: The compound was tested for its maximal percent change of force of constriction in uM; no effect. In kind it is functional.

Calls of active or inactive are those of the source. The calls are words filed in the database; no cut-off is given here.

`CC(=O)N(CCOc1ccccc1)CCc1ccc(NS(C)(=O)=O)cc1`: the Max delta FC in test [1] was -37.9%. The same compound showed a Max delta FRP in test [2] of 58.4%. For the same compound, in test [3], the “Max delta HR” value was -46.17%.

On to `CS(=O)(=O)Nc1ccc(CCNCCOc2ccc(NS(C)(=O)=O)cc2)cc1` [N-DESMETHYLDOFETILIDE], for which the EA in test [4] came to 7.63. Besides, the Effective concentration in test [5] stood at 0.023 µM.

Take `C=CCN(CCOc1ccccc1)CCc1ccc(N(S(C)(=O)=O)S(C)(=O)=O)cc1`: the Max delta FC in test [1] came to 16.7%. In test [6], the “Max delta FRP” value is “inactive”. Further, the “Max delta HR” value in test [3] is recorded as -8.33%.

`Cc1ccc(CN(CCc2ccc(N(S(C)(=O)=O)S(C)(=O)=O)cc2)Cc2ccccc2)cc1`: the EA in test [4] is recorded as 6.21. This compound also showed an Effective concentration in test [5] of 0.62 µM.

`CS(=O)(=O)Nc1ccc(CCN(Cc2ccccc2)Cc2ccc(Cl)cc2)cc1` came in with an EA in test [4] of 5.98. Further, the Effective concentration in test [5] was 1.05 µM.

Turning to `CN(CCc1ccc(NS(C)(=O)=O)cc1)Cc1ccc(Cl)cc1`, the EA in test [4] turned out to be 5.65. This compound came in with an Effective concentration in test [5] of 2.239 µM.

Consider `CN(CCc1ccc(NS(C)(=O)=O)cc1)Cc1ccc2c(c1)OCO2`, for which the EA in test [4] is recorded as 6.15. The Effective concentration in test [5] is 0.89 µM.

The compound `CS(=O)(=O)Nc1ccc(CCN(Cc2ccccc2)Cc2ccccc2)cc1` came in with an EA in test [4] of 6.57. Besides, the Effective concentration in test [5] was found to be 0.27 µM.

Take `CN(CCc1ccc(NS(C)(=O)=O)cc1)Cc1ccccc1`: the EA in test [4] is recorded as 6.34. Also, the Effective concentration in test [5] was 0.372 µM.

Consider `CS(=O)(=O)Nc1ccc(CCN(CCOc2ccccc2)Cc2ccccc2)cc1`, for which the Max delta FC in test [1] was 25%. In test [6], the “Max delta FRP” value was “inactive”. Also, the “Max delta HR” value in test [3] is given as -31.8%.

Compound `CC(=O)N(CCOc1ccc(NS(C)(=O)=O)cc1)CCc1ccc(NS(C)(=O)=O)cc1` displayed an EA in test [4] of 7.67. For the same compound, the Effective concentration in test [5] was 0.021 µM.

In the case of `CN(CCOc1ccccc1)CCc1ccc(N(S(C)(=O)=O)S(C)(=O)=O)cc1`, in test [7], the “Max delta FC” value was “inactive”. In addition, in test [2], the Max delta FRP was determined as 12%. The “Max delta HR” value in test [3] is -20.69%.

`COc1ccc(CN(C)CCc2ccc(N(S(C)(=O)=O)S(C)(=O)=O)cc2)cc1`: the EA in test [4] was 5.93. The same compound displayed an Effective concentration in test [5] of 1.17 µM.

For the compound `CN(CCOc1ccccc1)CCc1ccc(NS(C)(=O)=O)cc1`, the Max delta FC in test [1] is 20.2%. In test [2], this compound had a Max delta FRP of 20.2%. Moreover, in test [3], the “Max delta HR” value is reported as -28.51%.

As to `CS(=O)(=O)N(c1ccc(CCN(Cc2ccccc2)Cc2ccc3c(c2)OCO3)cc1)S(C)(=O)=O`, the EA in test [4] came to 6.41. This compound also registered an Effective concentration in test [5] of 0.38 µM.

As for `CS(=O)(=O)N(c1ccc(CCN(CCOc2ccccc2)Cc2ccccc2)cc1)S(C)(=O)=O`, the Max delta FC in test [1] was 25%. Further, in test [6], the “Max delta FRP” value is “inactive”. Moreover, in test [3], the “Max delta HR” value was -17.86%.

In test [4], `CS(=O)(=O)Nc1ccc(CCN(CCOc2ccc(NS(C)(=O)=O)cc2)Cc2ccc(Cl)cc2)cc1` displayed an EA of 7.44. The Effective concentration in test [5] was determined as 0.037 µM.

With `CS(=O)(=O)Nc1ccc(CCN(CCOc2ccc(NS(C)(=O)=O)cc2)Cc2ccccc2)cc1`, the EA in test [4] turned out to be 7.8. The Effective concentration in test [5] was determined as 0.016 µM.

`COc1ccccc1CN(CCc1ccc(NS(C)(=O)=O)cc1)Cc1ccccc1` came in with an EA in test [4] of 6.85. Besides, in test [5], the Effective concentration worked out at 0.141 µM.

On to `C=CCN(CCOc1ccccc1)CCc1ccc(NS(C)(=O)=O)cc1`, for which the Max delta FC in test [1] is 16.7%. The compound further yielded a Max delta FRP in test [2] of 9.77%. For the same compound, the “Max delta HR” value in test [3] is recorded as -15.18%.

In test [4], `Cc1ccc(CN(C)CCc2ccc(N(S(C)(=O)=O)S(C)(=O)=O)cc2)cc1` had an EA of 6.02. Moreover, the Effective concentration in test [5] is 0.953 µM.

As for `CS(=O)(=O)Nc1ccc(CCN(CCOc2ccccc2)C(=O)c2ccccc2)cc1`, in test [1], the Max delta FC stood at 33.3%. The Max delta FRP in test [2] turned out to be 5.33%. Besides, the “Max delta HR” value in test [3] is on record as -20%.

The compound `COc1ccc(CN(CCc2ccc(N(S(C)(=O)=O)S(C)(=O)=O)cc2)Cc2ccccc2)cc1` gave an EA in test [4] of 6.1. In addition, in test [5], the Effective concentration amounted to 0.79 µM.

Compound `CN(CCc1ccc(NS(C)(=O)=O)cc1)C1CCCCC1` displayed an EA in test [4] of 5.32. For the same compound, in test [5], the Effective concentration stood at 4.789 µM.

The compound `CN(CCOc1ccc(NS(C)(=O)=O)cc1)CCc1ccc(NS(C)(=O)=O)cc1` [DOFETILIDE] came in with an EA in test [4] of 7.92. The same compound gave an Effective concentration in test [5] of 0.012 µM. Further, the Max delta FC in test [1] worked out at 17.1%. Also, in test [2], the Max delta FRP was determined as 24%. The “Max delta HR” value in test [3] is recorded as -30.03%.

Take `CC(=O)N(CCOc1ccccc1)CCc1ccc(N(S(C)(=O)=O)S(C)(=O)=O)cc1`: in test [7], the “Max delta FC” value was “inactive”. The “Max delta FRP” value in test [6] is “inactive”. Also, the “Max delta HR” value in test [3] is reported as -20.51%.

Values taken from ChEMBL document CHEMBL1133140, “Computer-aided design, synthesis and biological assay of p-methylsulfonamido phenylethylamine analogues” (2000).
